Data set [1] is described as follows: Biodistribution of 99mTc-CT peptide, T-47D tumor in nude mouse. Format: in vivo. Particulars: 0.025 mCi, total radioactivity, 99mTc-labeled peptide; for tissue uptake dose at […]: 90 minutes. An excerpt:
(§1) Breast cancer cell lines were screened for receptor expression and the best cell lines chosen for xenograft implantation in immune deficient mice. These tumor models were used to evaluate the tumor targeting potential in vivo of the high affinity peptides identified in the in vitro assays above.
(§2) CT receptor expressing breast cancer cells (T47D and MCF-7) were implanted into immune deficient mice or Sprague-Dawley rats and allowed to grow tumors. For testing new ^99mTc-CT peptides, tumor-bearing mice or rats were injected with approximately 0.025 mCi at approximately 6 mCi/10 nmol peptide. The animals were cervically dislocated and imaged statically for 5 minutes using a gamma camera. The biodistribution of the ^99mTc-CT peptide was then determined by counting blood, tumor, target organs and muscle in a gamma counter along with standard aliquots of the injected dose. The time points for biodistribution were chosen to represent early, middle and late phases of ^99mTc-CT analog clearance. […] To assess the tumor imaging potential of selected analogs, the ratio of radioactivity in blood and various tissues were compared to that in tumor.

Data set [2] concerns T-47D tumor. Described as above. Format: in vivo. Conditions: 99mTc-labeled peptide, 90 minutes.
From the text: as §1, §2

In data set [3] the target is T1, CT receptor (Homo sapiens, UniProt P30988).
T1 construct: Assays using microsomal membrane fractions of rat brain and T-47D cells; host or cells: T-47D
T1 sequence (P30988 25-474): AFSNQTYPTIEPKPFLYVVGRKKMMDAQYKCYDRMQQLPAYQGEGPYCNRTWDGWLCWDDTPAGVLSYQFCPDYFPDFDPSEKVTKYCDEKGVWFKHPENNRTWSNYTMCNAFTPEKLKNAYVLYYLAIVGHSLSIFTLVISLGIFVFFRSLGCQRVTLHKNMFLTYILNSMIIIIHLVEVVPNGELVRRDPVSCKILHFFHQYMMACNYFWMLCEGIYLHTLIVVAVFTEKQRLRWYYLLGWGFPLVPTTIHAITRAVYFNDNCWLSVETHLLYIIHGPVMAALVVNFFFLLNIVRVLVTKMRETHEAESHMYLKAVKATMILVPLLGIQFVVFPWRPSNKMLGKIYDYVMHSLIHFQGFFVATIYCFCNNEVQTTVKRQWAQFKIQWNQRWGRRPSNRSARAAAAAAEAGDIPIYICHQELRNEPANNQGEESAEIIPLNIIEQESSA
The data set can be described thus: Displacement of 125I-CT from CT receptor in T-47D cell membranes. Format: binding. The method, then:
(§3) Peptide reagents within the scope of the invention, or ReO complexed embodiments thereof, were tested using in vitro assays that measure their ability to inhibit the specific binding of ^125I-CT to the CT receptor, using membranes from rat brain or from a breast tumor cell line, and on whole cells from breast tumor cell lines, as described in detail below.
(§4) Assays using microsomal membrane fractions of rat brain and T-47D cells (obtained from the American Type Culture collection, Rockville, Md., ATCC Accession No. HTB-133) were used to identify analogs with high affinity for the CT receptor according to the method of Fisher et al. (1977, British J. Cancer 35: 777-784). Briefly, tissue was minced and homogenized. The membranes were washed several times, assayed for protein content and used in the binding assay. Membrane protein was incubated with 0.1 μCi of ^125I-salmon CT (Amersham, Cleveland, Ohio) in he presence or absence of varying concentrations of reagents to be tested. Both uncomplexed and ReO complexed reagents were tested. One hundred percent specific binding of ^125I-CT to the CT receptor was defined as the difference between total ^125I-CT binding and nonspecific binding of ^125I-CT measured in the presence of a receptor-saturating concentration (1 μM) of excess unlabeled salmon CT (Sigma, St. Louis, Mo.).

For data set [4], the target named is CT receptor. The data set can be described thus: Displacement of 125I-CT from CT receptor in rat brain membranes. Format: binding. Particulars: displacement of 125I-CT (Table III). The method, then: as §3, §4
A short description of data set [5]: Biodistribution of 99mTc-CT peptide in rat. The data set is classed as in vivo. Particulars: 99mTc-labeled peptide; for tissue uptake at […] / tissue uptake dose at […]: 0.025 mCi; for tissue uptake at […]: 90 minutes post-injection; for tissue uptake dose at […]: 90 minutes. The method, then: as §2
Setting [6] is: T-47D membranes, displacement of 125I-CT (Table III).
[7] abbreviates: T-47D membranes, displacement of 125I-CT (Table III), read-out: T-47D IC50.

Read-outs that look alike come from different tables or passages of the source. Starred links: 1 amine or outer side, 2 acyl side, 3 side chain; linkers in the order of their positions; H or OH if unused. Positions of bridges follow the written chain, without caps; N, C: chain ends. Non-standard residues stand in square brackets, D forms with d. Residues, ends and D or L forms follow the SMILES beside them. *: point of attachment. X2 = NCCCC[C@H](NC(=O)[C@H](CS)NC(=O)[C@H](CCCCN)NC(=O)[C@@H](N)CNC(=O)C*)C(N)=O; X1 = NCCCC[C@H](NC(=O)[C@H](CS)NC(=O)CNC(=O)CNC(=O)C*)C(N)=O; hhCys(CH2CO) = O=C([C@H](CCCSCC(=O)[*:3])N[*:1])[*:2]; εLys = N[C@@H](CCCCN[*:1])C(=O)[*:2]; X3 = CC(C)(S)CNCCN(CCCCC*)CC(C)(C)S

On to `CC(C)C[C@H](NC(=O)[C@H](CCCCN)NC(=O)CNC(=O)[C@H](CC(C)C)NC(=O)[C@@H](NC(=O)[C@@H]1CCCSCC(=O)N[C@@H](CO)C(=O)N[C@@H](CC(N)=O)C(=O)N[C@@H](CC(C)C)C(=O)N[C@@H](CO)C(=O)N[C@@H]([C@@H](C)O)C(=O)N1)C(C)C)C(=O)N[C@@H](CO)C(=O)N[C@@H](CCC(N)=O)C(=O)N[C@@H](CCC(=O)O)C(=O)N[C@@H](CC(C)C)C(=O)N[C@@H](Cc1c[nH]cn1)C(=O)N[C@@H](CCCCN)C(=O)N[C@@H](CC(C)C)C(=O)N[C@@H](CCC(N)=O)C(=O)N[C@H](C(=O)N[C@@H](Cc1ccc(O)cc1)C(=O)N1CCC[C@H]1C(=O)N[C@@H](CCCNC(=N)N)C(=O)N[C@H](C(=O)N[C@@H](CC(N)=O)C(=O)N[C@H](C(=O)NCC(=O)N[C@@H](CO)C(=O)NCC(=O)N[C@H](C(=O)N1CCC[C@H]1C(=O)NCCCC[C@H](N)C(=O)NCC(=O)N[C@@H](CS)C(N)=O)[C@@H](C)O)[C@@H](C)O)[C@@H](C)O)[C@@H](C)O` [Peptide 2] (SNLST[hhCys(CH2CO)]VLGKLSQELHKLQTYPRTNTGSGTP[εLys]GC-NH2; lactam N-6), for which the tissue uptake at […] in data set [1] (90 minutes post-injection) amounted to 1.6 %ID/g. The tissue uptake dose at […] was found to be 5.4 %ID in data set [1] (GI tract, read-out: GI tract (% ID)); 18 %ID in data set [1] (kidneys, read-out: Kidneys (% ID)); 5.5 %ID in data set [1] (liver, read-out: Liver (% ID)); 0.24 %ID in data set [1] (lung, read-out: Lung (% ID)). The “Tum:Bld” value in data set [2] was determined as 3.3. In data set [2], the “Tum:Con” value turned out to be 10. In data set [3] (setting [6]), the affinity corresponds to a Ki of 12 nM. Moreover, the IC50 in data set [3] (setting [7]) was determined as 16 nM; in data set [4] it was 18 nM.

`CC(C)C[C@H](NC(=O)[C@H](CCCCN)NC(=O)CNC(=O)[C@H](CC(C)C)NC(=O)[C@@H](NC(=O)[C@@H]1CCCSCC(=O)N[C@@H](CO)C(=O)N[C@@H](CC(N)=O)C(=O)N[C@@H](CC(C)C)C(=O)N[C@@H](CO)C(=O)N[C@@H]([C@@H](C)O)C(=O)N1)C(C)C)C(=O)N[C@@H](CO)C(=O)N[C@@H](CSCC(=O)NC[C@H](N)C(=O)N[C@@H](CCCCN)C(=O)N[C@@H](CS)C(=O)N[C@@H](CCCCN)C(N)=O)C(=O)N[C@@H](CCC(=O)O)C(=O)N[C@@H](CC(C)C)C(=O)N[C@@H](Cc1c[nH]cn1)C(=O)N[C@@H](CCCCN)C(=O)N[C@@H](CC(C)C)C(=O)N[C@@H](CCC(N)=O)C(=O)N[C@H](C(=O)N[C@@H](Cc1ccc(O)cc1)C(=O)N1CCC[C@H]1C(=O)N[C@@H](CCCNC(=N)N)C(=O)N[C@H](C(=O)N[C@@H](CC(N)=O)C(=O)N[C@H](C(=O)NCC(=O)N[C@@H](CO)C(=O)NCC(=O)N[C@H](C(=O)N1CCC[C@H]1C(N)=O)[C@@H](C)O)[C@@H](C)O)[C@@H](C)O)[C@@H](C)O` [Peptide 5] (SNLST[hhCys(CH2CO)]VLGKLSC(X2)ELHKLQTYPRTNTGSGTP-NH2; lactam N-6): in data set [5], the “PK (min) t½α” value worked out at 1.6 min. Also, the “PK (min) t½β” value in data set [5] is reported as 17 min. In addition, the tissue uptake at […] in data set [5] (in vivo, read-out: Blood (% ID/g)) is 0.048 %ID/g. Also, the tissue uptake dose at […] in data set [5] (in vivo, read-out: GI tract (% ID)) was 4.5 %ID; in data set [5] (in vivo, read-out: Kidneys (% ID)), 31 %ID; in data set [5] (in vivo, read-out: Liver (% ID)), 5.8 %ID; in data set [5] (in vivo, read-out: Lung (% ID)), 0.56 %ID.

Take `CC(C)C[C@H](NC(=O)[C@H](CCCCN)NC(=O)CNC(=O)[C@H](CC(C)C)NC(=O)[C@@H](NC(=O)[C@@H]1CCCSCC(=O)N[C@@H](CO)C(=O)N[C@@H](CC(N)=O)C(=O)N[C@@H](CC(C)C)C(=O)N[C@@H](CO)C(=O)N[C@@H]([C@@H](C)O)C(=O)N1)C(C)C)C(=O)N[C@@H](CO)C(=O)N[C@@H](CSCC(=O)NCC(=O)NCC(=O)N[C@@H](CS)C(=O)N[C@@H](CCCCN)C(N)=O)C(=O)N[C@@H](CCC(=O)O)C(=O)N[C@@H](CC(C)C)C(=O)N[C@@H](Cc1c[nH]cn1)C(=O)N[C@@H](CCCCN)C(=O)N[C@@H](CC(C)C)C(=O)N[C@@H](CCC(N)=O)C(=O)N[C@H](C(=O)N[C@@H](Cc1ccc(O)cc1)C(=O)N1CCC[C@H]1C(=O)N[C@@H](CCCNC(=N)N)C(=O)N[C@H](C(=O)N[C@@H](CC(N)=O)C(=O)N[C@H](C(=O)NCC(=O)N[C@@H](CO)C(=O)NCC(=O)N[C@H](C(=O)N1CCC[C@H]1C(N)=O)[C@@H](C)O)[C@@H](C)O)[C@@H](C)O)[C@@H](C)O` [Peptide 4] (SNLST[hhCys(CH2CO)]VLGKLSC(X1)ELHKLQTYPRTNTGSGTP-NH2; lactam N-6): in data set [3] (T-47D cell membranes (Table IV), read-out: IC50 (nM)x), the IC50 was 2.6 nM. In data set [5], the “PK (min) t½α” value was 1.4 min. In data set [5], the “PK (min) t½β” value was found to be 19 min. Besides, the tissue uptake dose at […] in data set [5] (Sprague-Dawley, GI tract, total radioactivity, read-out: GI tract (% ID)) came to 2 %ID; in data set [5] (Sprague-Dawley, kidneys, total radioactivity, read-out: Kidneys (% ID)) it was 35 %ID; in data set [5] (Sprague-Dawley, liver, total radioactivity, read-out: Liver (% ID)), 4 %ID; in data set [5] (Sprague-Dawley, lung, total radioactivity, read-out: Lung (% ID)), 0.53 %ID. The tissue uptake at […] in data set [5] (Sprague-Dawley, blood, total radioactivity) is 0.027 %ID/g.

Regarding `CC(C)C[C@H](NC(=O)[C@H](CCCCN)NC(=O)CNC(=O)[C@H](CC(C)C)NC(=O)[C@@H](NC(=O)[C@@H]1CCCSCC(=O)N[C@@H](CO)C(=O)N[C@@H](CC(N)=O)C(=O)N[C@@H](CC(C)C)C(=O)N[C@@H](CO)C(=O)N[C@@H]([C@@H](C)O)C(=O)N1)C(C)C)C(=O)N[C@@H](CO)C(=O)N[C@@H](CSCCCCCN(CCNCC(C)(C)S)CC(C)(C)S)C(=O)N[C@@H](CCC(=O)O)C(=O)N[C@@H](CC(C)C)C(=O)N[C@@H](Cc1c[nH]cn1)C(=O)N[C@@H](CCCCN)C(=O)N[C@@H](CC(C)C)C(=O)N[C@@H](CCC(N)=O)C(=O)N[C@H](C(=O)N[C@@H](Cc1ccc(O)cc1)C(=O)N1CCC[C@H]1C(=O)N[C@@H](CCCNC(=N)N)C(=O)N[C@H](C(=O)N[C@@H](CC(N)=O)C(=O)N[C@H](C(=O)NCC(=O)N[C@@H](CO)C(=O)NCC(=O)N[C@H](C(=O)N1CCC[C@H]1C(N)=O)[C@@H](C)O)[C@@H](C)O)[C@@H](C)O)[C@@H](C)O` [Peptide 1] (SNLST[hhCys(CH2CO)]VLGKLSC(X3)ELHKLQTYPRTNTGSGTP-NH2; lactam N-6), the Ki in data set [3] (setting [6]) was 0.41 nM. Moreover, the IC50 in data set [3] (setting [7]) is 0.53 nM; in data set [4], 2.6 nM.

One may read the Ki as a dissociation constant, usually derived from enzyme kinetics or from competition with a known ligand. A higher Ki goes with weaker binding. Usually IC50 stands for the point on the concentration scale where inhibition reaches its midpoint.

For the origin of these results see patent US6509001B1, “Calcitonin receptor binding reagents” (Diatide, Inc., priority 1997, dated 2003).
